# In PubChem BioAssay AID192 (DTP/NCI, 2004):
# Several values for one entry are separate records, joined by “and”; a condition that tells them apart may be missing. Equal entries are not always repeated. Inconclusive results and toxic doses are left out.
# Test system: BDF1 mice, B16 melanoma ip, median survival T/C
# Experiment: NCI In Vivo Anticancer Drug Screen. Data for tumor model B16 Melanoma (intraperitoneal) in B6D2F1 (BDF1) mice
# Conditions: endpoint: median survival time, higher = longer survival
# Outline: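 Survival or tumor size is measured after treatment of tumor-bearing mice and normalised to the vehicle-treated control group.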
# [1] = dose: 12.5 mg/kg/injection, schedule: Q01DX009 (ip), vehicle: Klucel (hydroxypropylcellulose) (HPC)
# [2] = dose: 25.0 mg/kg/injection, schedule: Q01DX009 (ip), vehicle: Klucel (hydroxypropylcellulose) (HPC)
# [3] = dose: 50.0 mg/kg/injection, schedule: Q01DX009 (ip), vehicle: Klucel (hydroxypropylcellulose) (HPC)
# [4] = dose: 100.0 mg/kg/injection, schedule: Q01DX009 (ip), vehicle: Klucel (hydroxypropylcellulose) (HPC)
# [5] = dose: 6.25 mg/kg/injection, schedule: Q01DX009 (ip), vehicle: saline
# [6] = dose: 12.5 mg/kg/injection, schedule: Q01DX009 (ip), vehicle: saline
# [7] = dose: 25.0 mg/kg/injection, schedule: Q01DX009 (ip), vehicle: saline
# [8] = dose: 50.0 mg/kg/injection, schedule: Q01DX009 (ip), vehicle: saline
# [9] = dose: 50.0 mg/kg/injection, schedule: Q01DX009 (ip), vehicle: saline with Tween-80
structure (smiles),measurement,setting,value
O=NN(CCCl)C(=O)NCCCl,T/C,"dose: 0.25 mg/kg/injection, schedule: Q01DX009 (ip), vehicle: saline with Tween-80",102 % of control
same,T/C,"dose: 0.5 mg/kg/injection, schedule: Q01DX009 (ip), vehicle: saline + alcohol",105 % of control and 110 % of control
same,T/C,"dose: 0.5 mg/kg/injection, schedule: Q01DX009 (ip), vehicle: saline with Tween-80",109 % of control
same,T/C,"dose: 1.0 mg/kg/injection, schedule: Q01DX009 (ip), vehicle: saline + alcohol",108 % of control and 115 % of control
same,T/C,"dose: 1.0 mg/kg/injection, schedule: Q01DX009 (ip), vehicle: saline with Tween-80",110 % of control and 113 % of control (2×)
same,T/C,"dose: 1.5 mg/kg/injection, schedule: Q01DX009 (ip), vehicle: alcohol",113 % of control and 116 % of control
same,T/C,"dose: 1.5 mg/kg/injection, schedule: Q01DX009 (ip), vehicle: other",95 % of control and 104 % of control
same,T/C,"dose: 1.87 mg/kg/injection, schedule: Q01DX009 (ip), vehicle: saline",115 % of control
same,T/C,"dose: 1.9 mg/kg/injection, schedule: Q01DX001 (ip), vehicle: saline",115 % of control
same,T/C,"dose: 2.0 mg/kg/injection, schedule: Q01DX009 (ip), vehicle: saline + alcohol",109 % of control and 118 % of control
same,T/C,"dose: 2.0 mg/kg/injection, schedule: Q01DX009 (ip), vehicle: saline with Tween-80",109 % of control and 115 % of control and 122 % of control
same,T/C,"dose: 2.0 mg/kg/injection, schedule: Q04DX003 (ip), vehicle: saline + alcohol",118 % of control
same,T/C,"dose: 3.0 mg/kg/injection, schedule: Q01DX009 (ip), vehicle: other",105 % of control and 114 % of control
same,T/C,"dose: 3.75 mg/kg/injection, schedule: Q01DX001 (ip), vehicle: saline",115 % of control
same,T/C,"dose: 4.0 mg/kg/injection, schedule: Q01DX009 (ip), vehicle: saline with Tween-80",152 % of control
same,T/C,"dose: 5.0 mg/kg/injection, schedule: Q01DX001 (ip), vehicle: saline + alcohol",111 % of control and 122 % of control
same,T/C,"dose: 5.0 mg/kg/injection, schedule: Q01DX009 (ip), vehicle: other",190 % of control
same,T/C,"dose: 5.0 mg/kg/injection, schedule: Q04DX003 (ip), vehicle: saline + alcohol",113 % of control and 115 % of control
same,T/C,"dose: 6.0 mg/kg/injection, schedule: Q01DX009 (ip), vehicle: alcohol",160 % of control and 188 % of control
same,T/C,"dose: 6.0 mg/kg/injection, schedule: Q01DX009 (ip), vehicle: other",171 % of control and 179 % of control
same,T/C,"dose: 7.5 mg/kg/injection, schedule: Q01DX001 (ip), vehicle: saline",119 % of control
same,T/C,"dose: 7.5 mg/kg/injection, schedule: Q01DX009 (ip), vehicle: saline",192 % of control
same,T/C,"dose: 8.0 mg/kg/injection, schedule: Q01DX001 (ip), vehicle: saline + alcohol",107 % of control
same,T/C,"dose: 8.0 mg/kg/injection, schedule: Q01DX009 (ip), vehicle: saline + alcohol",207 % of control and 221 % of control
same,T/C,"dose: 8.0 mg/kg/injection, schedule: Q01DX009 (ip), vehicle: saline with Tween-80",165 % of control and 168 % of control and 183 % of control
same,T/C,"dose: 8.0 mg/kg/injection, schedule: Q04DX003 (ip), vehicle: saline + alcohol",111 % of control
same,T/C,"dose: 10.0 mg/kg/injection, schedule: Q01DX001 (ip), vehicle: saline",121 % of control
same,T/C,"dose: 12.0 mg/kg/injection, schedule: Q01DX009 (ip), vehicle: other",153 % of control
same,T/C,"dose: 15.0 mg/kg/injection, schedule: Q01DX009 (ip), vehicle: saline",200 % of control
same,T/C,"dose: 16.0 mg/kg/injection, schedule: Q01DX009 (ip), vehicle: saline + alcohol",53 % of control and 65 % of control
same,T/C,"dose: 16.0 mg/kg/injection, schedule: Q04DX003 (ip), vehicle: saline + alcohol",186 % of control
same,T/C,"dose: 20.0 mg/kg/injection, schedule: Q01DX001 (ip), vehicle: saline",154 % of control
same,T/C,"dose: 20.0 mg/kg/injection, schedule: Q04DX003 (ip), vehicle: saline + alcohol",157 % of control and 210 % of control and 229 % of control
same,T/C,"dose: 30.0 mg/kg/injection, schedule: Q01DX001 (ip), vehicle: saline + alcohol",154 % of control
same,T/C,"dose: 30.0 mg/kg/injection, schedule: Q01DX001 (ip), vehicle: saline",189 % of control
same,T/C,"dose: 32.0 mg/kg/injection, schedule: Q01DX009 (ip), vehicle: saline + alcohol",40 % of control and 44 % of control
same,T/C,"dose: 32.0 mg/kg/injection, schedule: Q04DX003 (ip), vehicle: saline + alcohol",248 % of control
same,T/C,"dose: 40.0 mg/kg/injection, schedule: Q01DX001 (ip), vehicle: saline",207 % of control
same,T/C,"dose: 40.0 mg/kg/injection, schedule: Q04DX003 (ip), vehicle: saline + alcohol",62 % of control and 80 % of control
same,T/C,"dose: 60.0 mg/kg/injection, schedule: Q01DX001 (ip), vehicle: saline",106 % of control
same,T/C,"dose: 64.0 mg/kg/injection, schedule: Q01DX001 (ip), vehicle: saline + alcohol",42 % of control
same,T/C,"dose: 64.0 mg/kg/injection, schedule: Q01DX009 (ip), vehicle: saline + alcohol",28 % of control and 30 % of control
same,T/C,"dose: 64.0 mg/kg/injection, schedule: Q04DX003 (ip), vehicle: saline + alcohol",43 % of control
same,T/C,"dose: 128.0 mg/kg/injection, schedule: Q04DX003 (ip), vehicle: saline + alcohol",37 % of control
same,T/C,"dose: 256.0 mg/kg/injection, schedule: Q04DX003 (ip), vehicle: saline + alcohol",20 % of control
CC1(C)N=C(N)N=C(N)N1c1cccc(CCC(=O)Nc2ccc(S(=O)(=O)F)cc2)c1,T/C,"dose: 30.0 mg/kg/injection, schedule: Q01DX009 (ip), vehicle: saline with Tween-80",113 % of control
same,T/C,"dose: 60.0 mg/kg/injection, schedule: Q01DX009 (ip), vehicle: saline with Tween-80",123 % of control
same,T/C,"dose: 120.0 mg/kg/injection, schedule: Q01DX009 (ip), vehicle: saline with Tween-80",110 % of control
C=CCOCC(O)CN(CCC(C)C)CCC(C)C (configuration not stated),T/C,"dose: 12.5 mg/kg/injection, schedule: Q04DX003 (ip), vehicle: Klucel (hydroxypropylcellulose) (HPC)",91 % of control
same,T/C,"dose: 25.0 mg/kg/injection, schedule: Q04DX003 (ip), vehicle: Klucel (hydroxypropylcellulose) (HPC)",91 % of control
same,T/C,"dose: 50.0 mg/kg/injection, schedule: Q04DX003 (ip), vehicle: Klucel (hydroxypropylcellulose) (HPC)",95 % of control
CC(=O)OCC1OC(OC2=C(CC=C(C)C)C(=O)c3ccccc3C2=O)C(OC(C)=O)C(OC(C)=O)C1OC(C)=O (configuration not stated),T/C,"dose: 6.25 mg/kg/injection, schedule: Q01DX009 (ip), vehicle: Klucel (hydroxypropylcellulose) (HPC)",95 % of control and 98 % of control
same,T/C,[1],87 % of control
same,T/C,[2],87 % of control
same,T/C,[3],88 % of control and 91 % of control
same,T/C,[4],92 % of control
CCCCCCCCCCCC(=O)Nc1ccccc1,T/C,[1],105 % of control
same,T/C,[2],90 % of control
same,T/C,[3],92 % of control
CCN(CC)CCCC(C)Nc1c2ccc(C)cc2nc2ccc(OC)cc12 (configuration not stated),T/C,[5],89 % of control
same,T/C,[6],99 % of control and 114 % of control
same,T/C,[7],124 % of control
same,T/C,[8],122 % of control and 123 % of control
Cn1c2c(c3ccccc3c1=O)C(=O)c1ccccc1-2,T/C,"dose: 25.0 mg/kg/injection, schedule: Q01DX009 (ip), vehicle: saline with Tween-80",97 % of control
same,T/C,[9],89 % of control
CCCCN(CCCC)c1ccc(C(=O)O)cc1,T/C,[9],102 % of control
same,T/C,"dose: 100.0 mg/kg/injection, schedule: Q01DX009 (ip), vehicle: saline with Tween-80",94 % of control
same,T/C,"dose: 200.0 mg/kg/injection, schedule: Q01DX009 (ip), vehicle: saline with Tween-80",103 % of control
CC1=[N+](C)C(C)(C)CC(C)O1 (configuration not stated),T/C,"dose: 3.12 mg/kg/injection, schedule: Q01DX009 (ip), vehicle: saline",91 % of control
same,T/C,[5],104 % of control
same,T/C,[6],104 % of control
same,T/C,[7],91 % of control
Cc1c(N)nc(C(CC(N)=O)NCC(N)C(N)=O)nc1C(=O)NC(C(=O)NC(C)C(O)C(C)C(=O)NC(C(=O)NCCc1nc(-c2nc(C(=O)NCCC[S+](C)C)cs2)cs1)C(C)O)C(OC1OC(CO)C(O)C(O)C1OC1OC(CO)C(O)C(OC(N)=O)C1O)c1cnc[nH]1 (configuration not stated),T/C,"dose: 3.9 mg/kg/injection, schedule: Q01DX009 (ip), vehicle: saline",107 % of control
same,T/C,"dose: 7.8 mg/kg/injection, schedule: Q01DX009 (ip), vehicle: saline",105 % of control
same,T/C,"dose: 15.6 mg/kg/injection, schedule: Q01DX009 (ip), vehicle: saline",99 % of control
CCN(CC)CCOC(=O)c1ccc(N)cc1,T/C,[5],100 % of control
same,T/C,[6],92 % of control
same,T/C,[7],100 % of control
same,T/C,[8],107 % of control
same,T/C,"dose: 100.0 mg/kg/injection, schedule: Q01DX009 (ip), vehicle: saline",105 % of control
COc1cc(C=Nc2cccc(C(F)(F)F)c2)ccc1O,T/C,[4],99 % of control
same,T/C,"dose: 200.0 mg/kg/injection, schedule: Q01DX009 (ip), vehicle: Klucel (hydroxypropylcellulose) (HPC)",94 % of control
